Results taken from US5962409A, “Somatostatin-analogous cyclic peptides with inhibitory activity on growth hormone” (priority 1995, dated 1999).

Columns and labels:
[1] = tested on: 70 kDa complex (1 or 4 sub-type somatostatin receptors), GH 3 rat cell line; test: Displacement of radioiodinated 11-Tyr somatostatin-14 from somatostatin receptors, 70 kDa complex (gel electrophoresis/autoradiography); assay type: binding; conditions: 10^-6 M; auto-radiographies in electrophoresis
Experimental: (§1) The study of the binding of the peptides on somatostatin receptors has been carried out according to the displacement method which consists in replacing from the receptors the radioligand (11-Tyr radioiodinated somatostatin 14-) before electrophoretic analysis on a denaturant polyacrylaminde gel (Prevost et al. European J. Cancer, 11, 1589-1592,1993).
(§2) The biological activity was tested on rat and human cell lines, namely a GH 3 rat cell line established starting from a pituitary tumor with two 70 and 57 kDa receptors; MCF7 human cell line established starting from a pleural effusion of a breast carcinoma with two main 57 and 42 kDa receptors and human cell line established starting from a small cell carcinoma of the lung with a 57 kDa receptor.
(§3) The tested peptides were suspended in 0.1% acetic acid at the final concentration of 10 mM and stored at 4° C.
(§4) Tests were carried out at a 10^-6 M concentration.

[2] = tested on: 57 kDa complex (somatostatin receptor sub-type 2); test: Displacement of radioiodinated 11-Tyr somatostatin-14 from somatostatin receptors, 57 kDa complex (gel electrophoresis/autoradiography); assay type: binding, rat and human; conditions: 10^-6 M; auto-radiographies in electrophoresis
Experimental: as §1, §2, §3, §4

Row | Molecule | suppression of the 70 kDa radioligand-receptor complex [1] | displacement of the 57 kDa radioligand-receptor complex [2]
1 | C[C@H](N)C(=O)NCC(=O)N[C@H]1CSSC[C@@H](C(=O)O)NC(=O)[C@H](CO)NC(=O)[C@H]([C@@H](C)O)NC(=O)[C@H](Cc2ccccc2)NC(=O)[C@H]([C@@H](C)O)NC(=O)[C@H](CCCCN)NC(=O)[C@H](Cc2c[nH]c3ccccc23)NC(=O)[C@H](Cc2ccccc2)NC(=O)[C@H](Cc2ccccc2)NC(=O)[C@H](CC(N)=O)NC(=O)[C@H](CCCCN)NC1=O [somatostatin-14] | suppressed | 
2 | Antarelix |  | not
